For seven compounds, GI50 and TGI results are on record in PubChem BioAssay (NCI).

“And” between values parts separate entries of the source, which are not always exact repeats. Equal values may be shown once.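 Following 48 hours of exposure in 96-well plates, responses at five concentrations were used to interpolate endpoints linearly. GI50 = concentration required for 50% inhibition of growth. TGI: concentration producing complete growth inhibition.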

Among the test systems are A498 renal; CCRF-CEM leukemia; HCT-15 colon; MOLT-4 leukemia; SF-539 CNS; SNB-19 CNS; SNB-75 CNS; T-47D breast; UACC-257 melanoma; UO-31 renal.
Holding throughout (assay): NCI anticancer screen, dose series, 48 h

On to `COc1ccc(/C(C)=C(\c2ccc(OCCN3CCCCCC3)cc2)c2ccc(OC(=O)C3CCCCC3)cc2)cc1`, for which the GI50 was 1350 nM with A498 renal; 750 nM in the test on CCRF-CEM leukemia; 378 nM in the test with HCT-15 colon; 497 nM in the test on MOLT-4 leukemia; 833 nM with SF-539 CNS; 2.45 µM in the test on SNB-19 CNS. In addition, the GI50 is 1600 nM with SNB-75 CNS, 405 nM in the test with T-47D breast, 575 nM in the test with UACC-257 melanoma and 453 nM with UO-31 renal. Further, the TGI in the test with A498 renal came to 3.45 µM; in the test on CCRF-CEM leukemia, 9.39 µM; in the test on HCT-15 colon, 1.41 µM; with MOLT-4 leukemia, 2.54 µM; with SF-539 CNS, 2740 nM; in the test on SNB-19 CNS it was 10.5 µM. Also, the TGI was found to be 3.88 µM with SNB-75 CNS, 3.33 µM in the test with T-47D breast, 2.07 µM in the test on UACC-257 melanoma and 2.22 µM in the test with UO-31 renal.
For the compound `COc1ccc(-c2ccc3c(N4CCOC[C@@H]4C)nc(N4CCOC[C@@H]4C)nc3n2)cc1CO`, the GI50 in the test with A498 renal was 1.21 nM and < 10 nM; with CCRF-CEM leukemia, 10.2 nM and 59 nM; with HCT-15 colon it was 5.26 nM and 30.1 nM; in the test with MOLT-4 leukemia, 5.84 nM and 48.8 nM; in the test on SF-539 CNS it was 4.31 nM and 26 nM; in the test on SNB-19 CNS, 0.00693 µM and 0.0491 µM. In addition, the GI50 in the test with SNB-75 CNS was 3.9 nM and < 10 nM; in the test on T-47D breast, 1.58 nM and < 10 nM; with UACC-257 melanoma it was 4.54 nM and 23 nM; with UO-31 renal, 3 nM and < 10 nM. Further, the TGI is 0.00302 µM and < 0.0234 µM in the test with A498 renal; greater than 100 µM in the test with CCRF-CEM leukemia; greater than 100 µM in the test on HCT-15 colon; > 6.64 µM and 37.1 µM with MOLT-4 leukemia; 83.1 nM and 268 nM with SF-539 CNS; greater than 100 µM with SNB-19 CNS. In addition, the TGI in the test on SNB-75 CNS is 0.0237 µM and 0.0359 µM; in the test with T-47D breast it was 0.00844 µM and 0.0544 µM; in the test with UACC-257 melanoma it was 0.0285 µM; in the test on UO-31 renal, 0.0758 µM and 0.0806 µM.
`COc1cc2c(Nc3cc(Cl)c(OC)c(Cl)c3)c(C#N)cnc2cc1OCCCN1CCN(C)CC1`: the GI50 with A498 renal is 904 nM; in the test on CCRF-CEM leukemia, 2040 nM; in the test with HCT-15 colon, 1320 nM; in the test on MOLT-4 leukemia, 1670 nM; in the test with SF-539 CNS, 1010 nM; in the test on SNB-19 CNS, 4.57 µM. In addition, the GI50 is 6570 nM in the test on SNB-75 CNS, 2020 nM in the test on T-47D breast, 1670 nM in the test on UACC-257 melanoma and 641 nM in the test with UO-31 renal. In addition, the TGI was found to be 2.61 µM with A498 renal; 10.8 µM in the test with CCRF-CEM leukemia; 12.1 µM in the test with HCT-15 colon; 7.92 µM in the test on MOLT-4 leukemia; 2910 nM in the test with SF-539 CNS; 14.9 µM with SNB-19 CNS. In addition, the TGI in the test with SNB-75 CNS amounted to 25.2 µM; with T-47D breast it was 9.65 µM; with UACC-257 melanoma, 3.07 µM; with UO-31 renal, 5.47 µM.
With `Nc1cc(Br)c(-c2nnc(CCC(=O)c3nc4ccccc4[nH]3)o2)c(Br)c1`, the GI50 in the test on A498 renal is 662 nM; with CCRF-CEM leukemia it was 3810 nM; in the test on HCT-15 colon, greater than 100000 nM; with MOLT-4 leukemia, 4940 nM; in the test on SF-539 CNS it was 17300 nM; in the test with SNB-19 CNS, 20.1 µM. Further, the GI50 in the test with SNB-75 CNS is 2960 nM; in the test on T-47D breast it was 23400 nM; in the test with UACC-257 melanoma, 7630 nM; in the test on UO-31 renal, 4060 nM. Moreover, the TGI in the test with A498 renal was 10.5 µM; with CCRF-CEM leukemia it was greater than 100 µM; with HCT-15 colon, greater than 100 µM; with MOLT-4 leukemia it was greater than 100 µM; in the test on SF-539 CNS, 60800 nM; in the test with SNB-19 CNS, greater than 100 µM. In addition, the TGI is 20.5 µM in the test on SNB-75 CNS, greater than 100 µM in the test on T-47D breast, greater than 100 µM in the test on UACC-257 melanoma and greater than 100 µM with UO-31 renal.
In the case of `Nc1ccccc1O.O.O=C(O)C1[O][Sb][O]C1C(=O)O` (centres undefined), the GI50 in the test on A498 renal was greater than 90300 nM; in the test on CCRF-CEM leukemia, 713 nM; with HCT-15 colon it was 19900 nM; with MOLT-4 leukemia, 10800 nM; with SF-539 CNS, 17900 nM; in the test with SNB-19 CNS it was 55.5 µM. The GI50 is 24900 nM in the test with SNB-75 CNS, 12200 nM in the test on T-47D breast, 14100 nM with UACC-257 melanoma and 9340 nM with UO-31 renal. The TGI in the test with A498 renal was greater than 100 µM; in the test on HCT-15 colon, 57.1 µM; with MOLT-4 leukemia, greater than 100 µM; in the test on SF-539 CNS, 37400 nM; in the test with SNB-19 CNS, greater than 100 µM; in the test with SNB-75 CNS it was 40.5 µM. In addition, the TGI in the test with T-47D breast came out at 34 µM; with UACC-257 melanoma, 28 µM; with UO-31 renal, 24.5 µM.
As for `CC(C)[C@H](O)C(=O)N[C@@H](C)C(=O)N[C@@H]1C(=O)N(C)CCc2ccccc21`, the GI50 in the test on A498 renal was greater than 100000 nM; in the test with CCRF-CEM leukemia it was greater than 100000 nM; in the test with HCT-15 colon it was greater than 100000 nM; with MOLT-4 leukemia, greater than 100000 nM; in the test on SF-539 CNS it was greater than 100000 nM; with SNB-19 CNS, greater than 100 µM. For the same compound, the GI50 in the test on SNB-75 CNS, with T-47D breast, with UACC-257 melanoma and in the test on UO-31 renal was greater than 100000 nM in each case. For the same compound, the TGI is greater than 100 µM with A498 renal; greater than 100 µM in the test on CCRF-CEM leukemia; greater than 100 µM in the test with HCT-15 colon; greater than 100 µM in the test with MOLT-4 leukemia; greater than 100000 nM in the test with SF-539 CNS; greater than 100 µM with SNB-19 CNS. In addition, the TGI in the test with SNB-75 CNS, in the test with T-47D breast, in the test with UACC-257 melanoma and with UO-31 renal was greater than 100 µM in each case.
Take `COc1ccc(-c2nc(-c3cc(OC)cc(OC)c3)[nH]c2-c2ccc(OC)cc2)cc1`: the GI50 in the test on A498 renal is greater than 100000 nM; in the test with CCRF-CEM leukemia it was 3930 nM; in the test with HCT-15 colon, 5040 nM; in the test with MOLT-4 leukemia it was 2800 nM; in the test on SF-539 CNS it was greater than 100000 nM; in the test with SNB-19 CNS, greater than 100 µM. Besides, the GI50 with SNB-75 CNS is greater than 100000 nM; in the test with T-47D breast, 2360 nM; in the test on UACC-257 melanoma, 23800 nM; in the test on UO-31 renal, 5720 nM. Besides, the TGI in the test with A498 renal is greater than 100 µM; with CCRF-CEM leukemia it was greater than 100 µM; with HCT-15 colon, greater than 100 µM; with MOLT-4 leukemia, 8.15 µM; with SF-539 CNS, greater than 100000 nM; in the test on SNB-19 CNS, greater than 100 µM. In addition, the TGI was greater than 100 µM in the test on SNB-75 CNS, 9.25 µM with T-47D breast, greater than 100 µM in the test with UACC-257 melanoma and greater than 100 µM with UO-31 renal.
